Measured values as given in patent publication US20220047566A1, “LONG ACTING IN-SITU FORMING/GELLING COMPOSITIONS” (Humanwell Pharmaceutical US, priority 2020, published 2022).
Counter-ions that a name gives are not always drawn.

Test system: skin incision
Assay: Mini-pig skin incision model, Von Frey test
Format: in vivo
Details: subcutaneous into both sides of incision
Method: Mini-pig skin incision model was used to test the anesthetic efficacy of some formulations. Mini pig was used in this model due to the similarities of their skin to humans. Mini pigs (9-12 kg) were randomly assigned for test groups. Under isoflurane anesthesia and sterile surgical conditions, a 6 cm long incision was made through skin in the rear left flank. The test drugs were administered subcutaneously into both sides of incision. The wound was then closed by continuous suture. After surgery the mini pig received antibiotic amoxicillin injection for 3 days as wound care. The efficacy of test drugs was evaluated by Von Frey test. At desired time point, an electrical automatic Von Frey was used to apply force about 0.5 cm to the incision. If operator observed the contraction of skin/muscle, or the applied force was over 100 g, the operator stopped the test and record the read of applied force. The response baseline of all mini pigs was tested and the pain threshold was set to the middle of baseline and 100 g. If the response force was higher than pain threshold value then there was anesthesia efficacy, vice versa.

## CCCCN1CCCC[C@H]1C(=O)Nc1c(C)cccc1C [levobupivacaine HCl]
  duration of anesthesia efficacy: about 4 hours
